ChEMBL document CHEMBL1127743, “Structure-based design of HIV-1 protease inhibitors: replacement of two amides and a 10 pi-aromatic system by a fused bis-tetrahydrofuran” (J Med Chem, 1994)

How the values were obtained:
[1] = biological target: Human immunodeficiency virus type 1 protease (Human immunodeficiency virus 1) (UniProt Q72874)
Description: Tested for antiviral potency against HIV protease enzyme

[2] = biological target: Human immunodeficiency virus type 1 protease (Human immunodeficiency virus 1, UniProt Q72874); assay: Tested for inhibitory activity against HIV protease enzyme

## CC(C)(C)NC(=O)[C@@H]1C[C@@H]2CCCC[C@@H]2CN1C[C@@H](O)[C@H](Cc1ccccc1)NC(=O)O[C@@H]1CO[C@@H]2OCC[C@@H]21
[1]
  IC95: 200 nM
[2]
  IC50: 6.4 nM
